According to US11896594B2, “Palatable antiparasitic formulations” (Zoetis Services LLC, priority 2018, dated 2024):
Values joined by “and” are separate entries in the source; they are usually repeats but may differ in a detail not shown here. Equal values may be shown once.

Test system: D. immitis
Test: Prevention of heartworm disease in dogs
Assay type: in vivo
Conditions: in vivo, po

## CO/N=C1\C[C@]2(C[C@@H]3C[C@@H](C/C=C(\C)C[C@@H](C)/C=C/C=C4\CO[C@@H]5[C@H](O)C(C)=C[C@@H](C(=O)O3)[C@]45O)O2)O[C@H](/C(C)=C/C(C)C)[C@H]1C [moxidectin]
  rate of efficacy against ML-resistant D. immitis isolate: 98.8% and 99.5%
